From article PMC3388080 (PLoS ONE, 2012)

Molecular target: T1, rHCRTR2 (Rattus norvegicus, UniProt P56719)
T1 construct: expressed in transfected cells; host or cells: HEK293 (transient transfection, pCI-Neo vector), membrane preparation
Test: Inhibition of [^3H]almorexant binding to HEK293-rHCRTR2 membranes
Excerpt: The rat cDNAs encoding HCRTR1 (Accession No. P56718) and HCRTR2 (Accession No. P56719) were subcloned into pCI-Neo expression vectors (Promega, Madison, WI) and used to transfect HEK293 cells (acquired commercially from ATCC-LGC, Molsheim, France) as previously described.

T1 sequence (P56719 whole entry): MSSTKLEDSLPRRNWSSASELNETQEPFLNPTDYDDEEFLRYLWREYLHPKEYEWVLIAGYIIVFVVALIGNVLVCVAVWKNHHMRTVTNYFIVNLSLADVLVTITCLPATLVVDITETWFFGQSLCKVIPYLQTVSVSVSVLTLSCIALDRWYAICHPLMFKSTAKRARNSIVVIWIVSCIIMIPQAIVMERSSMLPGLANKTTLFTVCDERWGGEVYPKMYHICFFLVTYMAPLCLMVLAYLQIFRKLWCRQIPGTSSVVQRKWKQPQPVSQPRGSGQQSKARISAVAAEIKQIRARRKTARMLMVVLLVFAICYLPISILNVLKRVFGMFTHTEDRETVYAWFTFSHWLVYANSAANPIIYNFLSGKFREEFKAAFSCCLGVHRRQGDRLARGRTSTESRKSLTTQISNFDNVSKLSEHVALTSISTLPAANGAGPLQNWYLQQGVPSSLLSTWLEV

CNC(=O)[C@@H](c1ccccc1)N1CCc2cc(OC)c(OC)cc2[C@@H]1CCc1ccc(C(F)(F)F)cc1 [almorexant, (2R)-2-[(1S)-6,7-Dimethoxy-1-[2-(4-trifluoromethyl-phenyl)-ethyl]-3,4-dihydro-1H-isoquinolin-2-yl]-N-methyl-2-phenyl-acetamide]
Ki: 2 nM
